In paper PMC3135721 (Journal of medicinal chemistry, 2010):

Molecular target: TSPO (Rattus norvegicus, UniProt P16257)
Assay: Inhibition of [3H]1 binding to rat kidney mitochondrial membranes
Details: ratio of Ki, 20 vs Ib, 21 vs Ic

Row | gain in activity with respect to desmethyl counterpart | Structure (SMILES)
1 | 25 | CCCCN(CCCC)C(=O)C(=O)c1c(-c2ccccc2)n(C)c2ccccc12 [compound 20]
2 | 4.6 | CCCCCCN(CCCCCC)C(=O)C(=O)c1c(-c2ccccc2)n(C)c2ccccc12 [compound 21]
